Laboratory results reported in patent publication US10613180B2, “Methods and systems of assessing tissue vascular permeability using non-labeled dextran” (priority 2014, dated 2020).

Columns and labels:
CT26 colon tumors = experiment: In vivo CEST MRI of 150 kD dextran uptake before and after TNF-α; design: species or system mice; details: TNF-α 1 μg per mouse, one hour after 150 kD dextran
Description: For dextran of 150 kD, a slightly different protocol was used (FIG. 3a). […] One hour later, TNF-α (1 μg per mouse) was injected. The CEST MRI was acquired using a series of z spectral imaging acquisition (from −3 ppm to +3 ppm, step=0.2 ppm). Each acquisition took ˜16 minutes. For all the studies, a fat-suppressed RARE sequence with a continuous wave pre-saturation pulse B1=1.8 μT and 3 seconds (TR/TE=5000/5 ms, RARE factor=10)^2 was used. Data were processed using custom-written MATLAB scripts. After correcting for B0 inhomogeneity using the WASSR method, the in vivo CEST contrast was quantified by averaging the MTRasym=(S^−Δω−S^+Δω)/S0 from 0.8 to 1.2 ppm.^2

tumor = experiment: In vivo and ex vivo fluorescence imaging and immunohistochemistry with dextran-FITC; design: species or system mice; details: after TNF-α
Description: The changes of mean ROI CEST contrast of tumor and kidney are plotted on the right. […] The dextran can be also imaged by its conjugated fluorescein (FITC).

Substance: TNF-α
- effect of TNF-α on dextran accumulation in tumor and kidney (CT26 colon tumors): increased vascular permeability
- dextran uptake in tumors by fluorescence imaging and immunohistochemistry (tumor): marked increased dextran uptake in tumors
